# Columns and labels:
# Format in all cases: in vivo
# [1] = system: healthy postmenopausal women; assay: Clinical study: continuous combined HRT (estradiol/drosperinone) with or without captopril; conditions: 15 mg captopril with continuous combined HRT (1 mg estradiol, 2 mg drosperinone), three periods of 28 days; vs HRT preparation alone
# Method: A clinical study is conducted in 50 healthy postmenopausal women, postmenopausal being defined as having had the last menstrual period at least 6 months before along with an increased FSH serum level. Two groups of 25 women who are not using any HRT are enrolled. All subjects receive a continuous combined HRT preparation containing 1 mg estradiol and 2 mg drosperinone for three periods of 28 days each. […] Subjects document any unscheduled vaginal bleeding (spotting, breakthrough bleeding) in a diary. Blood pressure is monitored intensively.
# [2] = system: healthy women of childbearing age; assay: Clinical study: low-dose oral contraceptive (30 μg ethinylestradiol/100 μg levonorgestrel) with or without enalapril; conditions: 5 mg enalapril with oral contraceptive (30 μg ethinylestradiol, 100 μg levonorgestrel), 84 days; vs oral contraceptive alone
# Method: A clinical study is conducted in 50 healthy women of childbearing age. Two groups of 25 women who are not using oral contraception, ‘pill starters’, are enrolled. All subjects receive a low-dose oral contraceptive containing 30 μg ethinylestradiol and 100 μg levonorgestrel for 84 days. Twenty-five (25) subjects are randomized to additionally receive 5 mg enalapril as an ACE-inhibitor with the oral contraceptive during the entire study period. All subjects document any unscheduled vaginal bleeding (spotting, breakthrough bleeding) in a diary. Blood pressure is monitored intensively.
# [3] = system: healthy women of childbearing age; assay: Clinical study: low-dose oral contraceptive (20 μg ethinylestradiol/100 μg levonorgestrel) with or without irbesartan; conditions: 75 mg irbesartan with oral contraceptive (20 μg ethinylestradiol, 100 μg levonorgestrel), 84 days; vs oral contraceptive alone
# Method: A clinical study is conducted in 40 healthy women of childbearing age. Two groups of 20 women who are not using oral contraception, ‘pill starters’, are enrolled. All subjects receive a low-dose oral contraceptive containing 20 μg ethinylestradiol and 100 μg levonorgestrel for 84 days. Twenty (20) subjects are randomized to additionally receive 75 mg irbesartan as an angiotensin II-receptor antagonist concomitantly with the oral contraceptive during the entire study period. All subjects document any unscheduled vaginal bleeding (spotting, breakthrough bleeding) in a diary. Blood pressure is monitored intensively.
# [4] = system: healthy women of childbearing age; assay: Clinical study: progestogen-only oral contraceptive (75 μg desogestrel) with or without irbesartan; conditions: 50 mg irbesartan with progestogen-only oral contraceptive (75 μg desogestrel), 84 days; vs oral contraceptive alone
# Method: A clinical study is conducted in 40 healthy women of childbearing age. Two groups of 20 women who are not using oral contraception, ‘pill starters’, are enrolled. All subjects receive a progestogen-only oral contraceptive containing 75 μg desogestrel for 84 days. Twenty (20) subjects are randomized to additionally receive 50 mg irbesartan as an angiotensin II-receptor antagonist concomitantly with the oral contraceptive during the entire study period. All subjects document any unscheduled vaginal bleeding (spotting, breakthrough bleeding) in a diary. Blood pressure is monitored intensively.
# [5] = system: healthy women of childbearing age; assay: Clinical study: contraceptive injections (150 mg medroxyprogesterone acetate) with or without irbesartan; conditions: daily 75 mg irbesartan, 6 months, with two injections of 150 mg medroxyprogesterone acetate; vs contraceptive injection alone
# Method: A clinical study is conducted in 40 healthy women of childbearing age. Two groups of 20 women are enrolled. All subjects receive two contraceptive injections containing 150 mg medroxyprogesterone acetate each with an interval of 3 months (13 weeks). Twenty (20) subjects are randomized to additionally receive daily 75 mg irbesartan as an angiotensin II-receptor antagonist during the entire study period of 6 months. All subjects document any unscheduled vaginal bleeding (spotting, breakthrough bleeding) in a diary. Blood pressure is monitored intensively.
# [6] = system: healthy women of childbearing age; assay: Clinical study: contraceptive implant (68 mg etonogestrel) with or without irbesartan; conditions: 75 mg irbesartan, 6 months, with implant containing 68 mg etonogestrel; vs contraceptive implant alone
# Method: A clinical study is conducted in 40 healthy women of childbearing age. Two groups of 20 women are enrolled. All subjects receive an implant containing 68 mg etonogestrel. Twenty (20) subjects are randomized to additionally receive 75 mg irbesartan as an angiotensin II-receptor antagonist concomitantly with the contraceptive implant during the entire study period of 6 months. All subjects document any unscheduled vaginal bleeding (spotting, breakthrough bleeding) in a diary. Blood pressure is monitored intensively.
# [7] = system: healthy postmenopausal women; assay: Clinical study: sequentially combined HRT (estradiol/dydrogesterone) with or without irbesartan; conditions: 75 mg irbesartan with sequentially combined HRT (2 mg estradiol, 10 mg dydrogesterone), 3 cycles of 28 days; vs HRT preparation alone
# Method: A clinical study is conducted in 40 healthy postmenopausal women, postmenopausal being defined as having had the last menstrual period at least 6 months before along with an increased FSH serum level. Two groups of 20 women who are not using any HRT are enrolled. All subjects receive a sequentially combined HRT preparation for 3 cycles of 28 days each. One cycle comprises 14 days of 2 mg estradiol only followed by 14 days of 2 mg estradiol for 14 days combined with 10 mg dydrogesterone. Twenty (20) subjects are randomized to additionally receive 75 mg irbesartan as an angiotensin II-receptor antagonist concomitantly with the HRT preparation during the entire study period. Subjects document any unscheduled vaginal bleeding (spotting, breakthrough bleeding) in a diary. Blood pressure is monitored intensively.
# [8] = system: healthy postmenopausal women; assay: Clinical study: continuous combined HRT (estradiol/norethisterone acetate) with or without irbesartan; conditions: 50 mg irbesartan with continuous combined HRT (2 mg estradiol, 1 mg norethisterone acetate), 84 days; vs HRT preparation alone
# Method: A clinical study is conducted in 40 healthy postmenopausal women, postmenopausal being defined as having had the last menstrual period at least 6 months before along with an increased FSH serum level. Two groups of 20 women who are not using any HRT are enrolled. All subjects receive a continuous combined HRT preparation containing 2 mg estradiol and 1 mg norethisterone acetate for 84 days. Twenty (20) subjects are randomized to additionally receive 50 mg irbesartan as an angiotensin II-receptor antagonist concomitantly with the HRT preparation during the entire study period. Subjects document any unscheduled vaginal bleeding (spotting, breakthrough bleeding) in a diary. Blood pressure is monitored intensively.
structure (smiles),measurement,setting,value
C[C@H](CS)C(=O)N1CCC[C@H]1C(=O)O [captopril],Efficacy between groups,[1],do not differ significantly
same,episodes of unscheduled bleeding,[1],fewer episodes of unscheduled bleeding
same,overall safety profile,[1],comparable to that of the group receiving the HRT preparation alone
CCOC(=O)[C@H](CCc1ccccc1)N[C@@H](C)C(=O)N1CCC[C@H]1C(=O)O [enalapril],blood pressure pattern between groups,[2],does not differ significantly
same,episodes of unscheduled bleeding,[2],fewer episodes of unscheduled bleeding
same,intensity of blood loss,[2],"less intense blood loss, if any"
same,overall safety profile,[2],comparable to that of the group receiving the oral contraceptive alone
CCCCC1=NC2(CCCC2)C(=O)N1Cc1ccc(-c2ccccc2-c2nnn[nH]2)cc1 [irbesartan],blood pressure pattern between groups,[3],does not differ significantly
same,episodes of unscheduled bleeding,[3],fewer episodes of unscheduled bleeding
same,intensity of blood loss,[3],"less intense blood loss, if any"
same,overall safety profile,[3],comparable to that of the group receiving the oral contraceptive alone
same,blood pressure pattern between groups,[4],does not differ significantly
same,episodes of unscheduled bleeding,[4],fewer episodes of unscheduled bleeding
same,intensity of blood loss,[4],"less intense blood loss, if any"
same,overall safety profile,[4],comparable to that of the group receiving the oral contraceptive alone
same,blood pressure pattern between groups,[5],does not differ significantly
same,episodes of unscheduled bleeding,[5],fewer episodes of unscheduled bleeding
same,intensity of blood loss,[5],"less intense blood loss, if any"
same,overall safety profile,[5],comparable to that of the group receiving the contraceptive injection alone
same,blood pressure pattern between groups,[6],does not differ significantly
same,episodes of unscheduled bleeding,[6],fewer episodes of unscheduled bleeding
same,intensity of blood loss,[6],"less intense blood loss, if any"
same,overall safety profile,[6],comparable to that of the group receiving the contraceptive implant alone
same,Efficacy between groups,[7],do not differ
same,blood pressure pattern between groups,[7],do not differ
same,episodes of unscheduled bleeding,[7],fewer episodes of unscheduled bleeding
same,intensity of blood loss,[7],"less intense blood loss, if any"
same,overall safety profile,[7],comparable to that of the group receiving the HRT preparation alone
same,Efficacy between groups,[8],do not differ significantly
same,blood pressure pattern between groups,[8],do not differ significantly
same,episodes of unscheduled bleeding,[8],fewer episodes of unscheduled bleeding
same,intensity of blood loss,[8],"less intense blood loss, if any"
same,overall safety profile,[8],comparable to that of the group receiving the HRT preparation alone

# — US20090197843A1, “Treatment of Prevention of Unscheduled Bleeding in Women on Progestogen Containing Medication” (PANTARHEI BIOSCIENCE B.V., priority 2004, published 2009)
